Source: PubChem BioAssay AID248 (DTP/NCI, 2004)
Values joined by “and” are separate entries in the source; they are usually repeats but may differ in a detail not shown here. Equal values may be shown once. Inconclusive results and toxic doses are left out. Cut-off read from the data, not from the text of the source: active = T/C of 150% or more; inactive = T/C below 125%.

System: L1210 leukemia ip in BDF1 mice, survival T/C
Assay: NCI In Vivo Anticancer Drug Screen. Data for tumor model L1210 Leukemia (intraperitoneal) in B6D2F1 (BDF1) mice
Details: endpoint: mean survival time, higher = longer survival
Procedure, shortened: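 Transplantable tumor model; survival measured in treated vs vehicle control mice. Value = treated/control.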

[1] = dose: 50.0 mg/kg/injection, schedule: Q04DX002 (ip), vehicle: Klucel (hydroxypropylcellulose) (HPC)
[2] = dose: 100.0 mg/kg/injection, schedule: Q04DX002 (ip), vehicle: Klucel (hydroxypropylcellulose) (HPC)
[3] = dose: 200.0 mg/kg/injection, schedule: Q04DX002 (ip), vehicle: Klucel (hydroxypropylcellulose) (HPC)
[4] = dose: 12.5 mg/kg/injection, schedule: Q01DX009 (ip), vehicle: saline with Tween-80
[5] = dose: 25.0 mg/kg/injection, schedule: Q01DX009 (ip), vehicle: saline with Tween-80
[6] = dose: 50.0 mg/kg/injection, schedule: Q01DX009 (ip), vehicle: saline with Tween-80
[7] = dose: 100.0 mg/kg/injection, schedule: Q01DX001 (ip), vehicle: carboxymethylcellulose (CMC)
[8] = dose: 200.0 mg/kg/injection, schedule: Q01DX001 (ip), vehicle: carboxymethylcellulose (CMC)
[9] = dose: 400.0 mg/kg/injection, schedule: Q01DX001 (ip), vehicle: carboxymethylcellulose (CMC)
[10] = dose: 100.0 mg/kg/injection, schedule: Q01DX009 (ip), vehicle: saline
[11] = dose: 100.0 mg/kg/injection, schedule: Q04DX003 (ip), vehicle: saline
[12] = dose: 200.0 mg/kg/injection, schedule: Q01DX009 (ip), vehicle: saline
[13] = dose: 200.0 mg/kg/injection, schedule: Q04DX003 (ip), vehicle: saline
[14] = dose: 400.0 mg/kg/injection, schedule: Q04DX003 (ip), vehicle: saline
[15] = dose: 50.0 mg/kg/injection, schedule: Q01DX001 (ip), vehicle: Klucel (hydroxypropylcellulose) (HPC)
[16] = dose: 100.0 mg/kg/injection, schedule: Q01DX001 (ip), vehicle: Klucel (hydroxypropylcellulose) (HPC)
[17] = dose: 100.0 mg/kg/injection, schedule: Q01DX009 (ip), vehicle: Klucel (hydroxypropylcellulose) (HPC)
[18] = dose: 200.0 mg/kg/injection, schedule: Q01DX009 (ip), vehicle: Klucel (hydroxypropylcellulose) (HPC)
[19] = dose: 400.0 mg/kg/injection, schedule: Q01DX009 (ip), vehicle: Klucel (hydroxypropylcellulose) (HPC)
[20] = dose: 50.0 mg/kg/injection, schedule: Q01DX001 (ip), vehicle: carboxymethylcellulose (CMC)
[21] = dose: 100.0 mg/kg/injection, schedule: Q04DX003 (ip), vehicle: saline with Tween-80
[22] = dose: 200.0 mg/kg/injection, schedule: Q04DX003 (ip), vehicle: saline with Tween-80
[23] = dose: 100.0 mg/kg/injection, schedule: Q04DX003 (ip), vehicle: Klucel (hydroxypropylcellulose) (HPC)
[24] = dose: 200.0 mg/kg/injection, schedule: Q04DX003 (ip), vehicle: Klucel (hydroxypropylcellulose) (HPC)
[25] = dose: 400.0 mg/kg/injection, schedule: Q04DX003 (ip), vehicle: Klucel (hydroxypropylcellulose) (HPC)

Measured: T/C

O=C(CCCCCCCCC(=O)NCC1(c2ccccc2)CCNCC1)NCC1(c2ccccc2)CCNCC1
inactive: dose: 1.25 mg/kg/injection, schedule: Q01DX Z (ip), vehicle: saline 89 % of control | dose: 2.5 mg/kg/injection, schedule: Q01DX Z (ip), vehicle: saline 88 % of control | dose: 10.0 mg/kg/injection, schedule: Q01DX Z (ip), vehicle: saline 97 % of control and 88 % of control | dose: 30.0 mg/kg/injection, schedule: Q01DX Z (ip), vehicle: saline 87 % of control

CCCCCCCC(=O)Oc1ccc(C)cc1
inactive: dose: 100.0 mg/kg/injection, schedule: Q01DX Z (ip), vehicle: carboxymethylcellulose (CMC) 103 % of control | dose: 150.0 mg/kg/injection, schedule: Q01DX Z (ip), vehicle: carboxymethylcellulose (CMC) 106 % of control | dose: 225.0 mg/kg/injection, schedule: Q01DX Z (ip), vehicle: carboxymethylcellulose (CMC) 97 % of control

CN(C)C(c1ccccc1)C(O)c1ccccc1 (stereo not drawn)
inactive: dose: 75.0 mg/kg/injection, schedule: Q01DX001 (ip), vehicle: saline 94 % of control and 98 % of control | dose: 150.0 mg/kg/injection, schedule: Q01DX001 (ip), vehicle: saline 97 % of control and 102 % of control | dose: 300.0 mg/kg/injection, schedule: Q01DX001 (ip), vehicle: saline 89 % of control and 96 % of control

O=[N+]([O-])c1ccc(/C=N/c2oc(-c3ccc([N+](=O)[O-])cc3)nc2SCc2ccccc2)cc1
inactive: [1] 100 % of control | [2] 100 % of control | [3] 116 % of control

CC/C(=N/OC(=O)N(CC)CC)c1ccccc1
inactive: dose: 100.0 mg/kg/injection, schedule: Q01DX001 (ip), vehicle: other 96 % of control | dose: 200.0 mg/kg/injection, schedule: Q01DX001 (ip), vehicle: other 91 % of control | dose: 400.0 mg/kg/injection, schedule: Q01DX001 (ip), vehicle: other 93 % of control

Cc1ccc(C(=O)CCl)c(C)c1
inactive: [4] 95 % of control | [5] 100 % of control | [6] 103 % of control

Cc1coc(NS(=O)(=O)c2ccc(N=Nc3cc(N=Nc4ccccc4)c(N)nc3N)cc2)c1C
inactive: [7] 94 % of control | [8] 105 % of control

CCCC(=O)c1c(O)cc(O)cc1O
inactive: [7] 98 % of control | [8] 96 % of control | [9] 93 % of control

CC(C)CN(CC(=O)N1CC(=O)Nc2ccccc21)CC(C)C
inactive: [10] 94 % of control | [11] 95 % of control | [12] 87 % of control | [13] 95 % of control | [14] 92 % of control

CCOC(=O)/C(C#N)=C/c1ccc(O)cc1
inactive: dose: 100.0 mg/kg/injection, schedule: Q01DX Z (ip), vehicle: methylcellulose (MC) 96 % of control | dose: 200.0 mg/kg/injection, schedule: Q01DX Z (ip), vehicle: methylcellulose (MC) 96 % of control

C[N+](C)(C)c1ccc(/C=C2\C=Cc3ccccc32)cc1
inactive: dose: 15.0 mg/kg/injection, schedule: Q01DX001 (ip), vehicle: carboxymethylcellulose (CMC) 108 % of control | dose: 30.0 mg/kg/injection, schedule: Q01DX001 (ip), vehicle: carboxymethylcellulose (CMC) 102 % of control

O=C(OCc1ccccc1CN1CCCC1)c1ccccc1
inactive: dose: 25.0 mg/kg/injection, schedule: Q01DX001 (ip), vehicle: Klucel (hydroxypropylcellulose) (HPC) 98 % of control | [15] 95 % of control | [16] 98 % of control and 102 % of control

N#C/C(=C\c1cccs1)c1ccc([N+](=O)[O-])cc1
inactive: [17] 96 % of control | [18] 86 % of control | [19] 91 % of control

O=[N+]([O-])c1ccc(-c2ncc3cnccn23)cc1
inactive: [10] 90 % of control | [11] 100 % of control | [12] 90 % of control | [13] 93 % of control | dose: 400.0 mg/kg/injection, schedule: Q01DX009 (ip), vehicle: saline 91 % of control | [14] 95 % of control

C=CCNCC1OC(OC)C2OC(C)(C)OC12 (stereo not drawn)
inactive: dose: 50.0 mg/kg/injection, schedule: Q01DX009 (ip), vehicle: saline 101 % of control | [10] 104 % of control | [11] 109 % of control | [12] 104 % of control | [13] 102 % of control

O=C(CC(CC(=O)c1ccccc1)c1ccccc1)c1ccccc1
inactive: [20] 91 % of control | [7] 94 % of control | [8] 94 % of control | [9] 94 % of control

O=C(O)c1c[nH]c2c(C(F)(F)F)cccc2c1=O
inactive: [20] 88 % of control | [7] 98 % of control | [8] 88 % of control | [9] 90 % of control

CCCCCCC(O)C[N+](=O)[O-] (stereo not drawn)
inactive: [4] 100 % of control | [5] 98 % of control | [6] 93 % of control | [21] 107 % of control | [22] 86 % of control

CCN(C(C)=O)c1ccc(S(=O)(=O)Cl)cc1
inactive: [21] 97 % of control | [22] 88 % of control

O=c1c(N=Nc2ccc(Cl)cc2)c(O)n(-c2ccc(Cl)cc2)c(=S)n1-c1ccccc1
inactive: [15] 108 % of control | [16] 94 % of control | dose: 200.0 mg/kg/injection, schedule: Q01DX001 (ip), vehicle: Klucel (hydroxypropylcellulose) (HPC) 100 % of control

O=C1C(Cc2ccccc2)C(=O)N(Cc2ccccc2)C(=O)N1Cc1ccccc1
inactive: [7] 88 % of control | [8] 90 % of control | [9] 88 % of control

COc1ccc(C(O)c2nnc(C(O)c3ccc(OC)cc3)nn2)cc1 (stereo not drawn)
inactive: dose: 100.0 mg/kg/injection, schedule: Q01DX009 (ip), vehicle: saline with Tween-80 96 % of control | [2] 103 % of control | dose: 200.0 mg/kg/injection, schedule: Q01DX009 (ip), vehicle: saline with Tween-80 96 % of control | [3] 90 % of control | dose: 400.0 mg/kg/injection, schedule: Q01DX009 (ip), vehicle: saline with Tween-80 86 % of control | dose: 400.0 mg/kg/injection, schedule: Q04DX002 (ip), vehicle: Klucel (hydroxypropylcellulose) (HPC) 100 % of control

O=C(Nc1ccc(C(F)(F)F)cc1)Nc1cccc(Cl)c1
inactive: [20] 98 % of control | [7] 101 % of control | [8] 93 % of control | [9] 95 % of control

O=C1c2ccccc2C(=O)N1c1cc(=O)[nH]c(=O)[nH]1
inactive: dose: 25.0 mg/kg/injection, schedule: Q04DX003 (ip), vehicle: Klucel (hydroxypropylcellulose) (HPC) 111 % of control | dose: 50.0 mg/kg/injection, schedule: Q04DX003 (ip), vehicle: Klucel (hydroxypropylcellulose) (HPC) 92 % of control

Cc1cccc(C)c1NC(=O)/C=C\C(=O)O
inactive: [23] 98 % of control | [24] 91 % of control | [25] 94 % of control

Cc1cc(OC(=O)c2ccc(N(C)C)cc2)ccc1[N+](=O)[O-]
inactive: [17] 95 % of control | [23] 96 % of control | [18] 94 % of control | [24] 91 % of control | [19] 97 % of control | [25] 95 % of control

CCOC(=O)c1cc(=O)[nH]c2ccc(OC)cc12
inactive: [21] 98 % of control | [22] 102 % of control | dose: 400.0 mg/kg/injection, schedule: Q04DX003 (ip), vehicle: saline with Tween-80 91 % of control

CCN1CCN(CC)C1=S
inactive: [1] 114 % of control | [2] 90 % of control | [3] 109 % of control

O=CNc1ccccc1Sc1ccc(C(=O)O)cc1[N+](=O)[O-]
inactive: [23] 100 % of control | [24] 107 % of control | [25] 104 % of control

N#CC1CS(=O)(=O)C1
inactive: [10] 108 % of control | [11] 106 % of control | [12] 103 % of control | [13] 101 % of control | [14] 102 % of control

COc1cc(CNCc2cc(OC)c(OC)c(OC)c2)cc(OC)c1OC
inactive: dose: 50.0 mg/kg/injection, schedule: Q01DX001 (ip), vehicle: saline 102 % of control | dose: 100.0 mg/kg/injection, schedule: Q01DX001 (ip), vehicle: saline 102 % of control
